Laboratory results reported in patent US20180244629A1, “Compounds And Compositions For The Treatment Of Cancer” (The Broad Institute, Inc., priority 2013, published 2018).
Read-outs that look alike come from different tables or passages of the source.

What was measured:
[1] = system: A549 cells; experiment: A549 Cytotoxicity Assay (Cell Titer Glo viability); format: cell-based; conditions: Homo sapiens, A549
Method: (§1) A549 Cytotoxicity Assay Protocol. Day 0: A549 cells (ATCC, A549 CCL-185) are grown to 95% confluence in RPMI, 10% FBS/Pen/Strep/L-Glutamine. Day 1: Plate cells (1000 per well) in 40 μl culturing media using Corning 384-well plates (3570), incubate in standard TC conditions (5% CO2, 95% humidity, 37° C.) for 24 h. Day 2: Dilute each concentration of a half-log serial dilution of compound (1 mM-100 nM) 1:200 in culturing media and add […] (50 μl total volume) of that dilution to designated wells (8 replicates per concentration). The final dilution will be 1000×([…]). Day 4: Remove plate from incubator to cool for 20 minutes to room temperature. Add 40 μl of a 25% Promega Cell Titer Glo solution (diluted 1:3 with room temperature PBS) with Thermo combi or multichannel and incubate for 10 min. Read on Perkin-Elmer EnVision with US LUM settings for 0.1 second per well.
A549 Assay Protocol. Day 0: A549 cells (ATCC) are grown in a Triple flask (NUNC) to ˜95% confluence (TrypLE Phenol Red free) and resuspended for dispensing at 25,000 cells/mL of DMEM, 10% FBS/Pen/Strep/L-Glutamine (using the TAP Compact SelecT automated cell culture system). Day 1: Plate cells at 1000 per well in 40 uL media (DMEM/10% FBS/Pen/Strep/L-Glutamine) using Corning 8867BC 384 well plates; incubate in standard TC conditions (5% CO2; 95% humidity, 37° C.) for 24 hours (Compact SelecT). Day 2: Add 100 nL compound per well at dose into 40 uL assay volume using a pin tool (CyBi Well). Pin 100 nL cytotoxic compounds, mitoxantrone (CID 4212) to positive control wells to a final concentration of 10 μM (100 nL 4 mM DMSO stock). Incubate for […] at 37° C. in Liconic incubator, 95% humidity 5% CO2. Day 4: Remove plate from incubator, cool for 15 minutes to room temperature; add 20 μL 50% Promega CellTiterGlo (diluted 1:1 with PBS, pH 7.4) with Thermo Combi. Incubate at room temperature for 5 minutes. Read plates on Perkin-Elmer EnVision with standard luminescence settings for 0.1 sec per well.
(§2) Compounds as shown were tested against various cells lines in vitro according to the methods described herein. Cells are plated in 384-well format in a total volume of 40 μl. Indicated compound concentrations were added 24 hrs after plating the cells. After 48 hrs cell viability was determined using Cell Titer Glo® Luminescent Cell Viability Assay.
as §2, with “Known PDE3 inhibitors” for “Compounds”, “shown below” for “shown”

[2] = system: PDE3; conditions: reference value; read-out: PDE3 activity (ref); cited from earlier work
[3] = system: HeLa cells; experiment: HeLa Cytotoxicity Assay (Cell Titer Glo viability); format: cell-based; conditions: Homo sapiens, HeLa
Method: HeLa Cytotoxicity Assay Protocol: Day 0: HeLa cells (ATCC, HeLa CCL-2) are grown to 95% confluence in DMEM, 10% FBS/Pen/Strep/L-Glutamine. Day 1: Plate cells (1000 per well) in 40 μl culturing media using Corning 384-well plates (3570), incubate in standard TC conditions (5% CO2, 95% humidity, 37 degrees C.) for 24 hours. Day 2: Dilute each concentration of a half-log serial dilution of compound (1 mM-100 nM) 1:200 in culturing media and add 10 μl (50 μl total volume) of that dilution to designated wells (8 replicates per concentration). The final dilution will be 1000×(1 μM-100 pM). Day 4: Remove plate from incubator to cool for 20 minutes to room temperature. Add 40 μl of a 25% Promega Cell Titer Glo solution (diluted 1:3 with room temperature PBS) with Thermo combi or multichannel and incubate for 10 minutes. Read on Perkin-Elmer EnVision with US LUM settings for 0.1 second per well.
as §2
as §2, with “Known PDE3 inhibitors” for “Compounds”, “shown below” for “shown”

[4] = system: H2122 cells; experiment: H2122 Assay (Cell Titer Glo viability); format: cell-based; conditions: Homo sapiens
Method: Selective toxicity in cell line panel. H2122 Assay Protocol Day 0: H2122 cells (ATCC, H2122 CCL-5985) are grown to 95% confluence in RPMI, 10% FBS/Pen/Strep/L-Glutamine. Day 1: Plate cells (750 per well) in 40 μl culturing media using Corning 384-well plates (3570), incubate in standard TC conditions (5% CO2, 95% humidity, 37 degrees C.) for 24 h. Day 2: Dilute each concentration of a half-log serial dilution of compound (1 mM-100 nM) 1:200 in culturing media and add 10 μl (50 μl total volume) of that dilution to designated wells (8 replicates per concentration). The final dilution will be 1000×([…]). Day 4: Remove plate from incubator to cool for 20 minutes to room temperature. Add 40 μl of a 25% Promega Cell Titer Glo solution (diluted 1:3 with room temperature PBS) with Thermo combi or multichannel and incubate for 10 minutes. Read on Perkin-Elmer EnVision with US LUM settings for 0.1 second per well.
as §2

[5] = system: COLO741 cells; experiment: COLO741 Assay (Cell Titer Glo viability); format: cell-based; conditions: Homo sapiens
Method: as §1, with “C0L0741” for “A549 Cytotoxicity”, “C0L0741” for “A549”, “(ECACC, C0L0741 93052621)” for “(ATCC, A549 CCL-185)”, “(1500” for “(1000”, “minutes.” for “min.”
as §2

[6] = system: H1563; experiment: H1563 cell line viability (Cell Titer Glo); format: cell-based; conditions: Homo sapiens, NCI-H1563; n = 2; read-out: Potency (EC50) H1563
Method: as §2

[7] = known PDE3 inhibitors, Mean (n = 3), read-out: Potency (EC50 nM) A549
[8] = known PDE3 inhibitors, Mean (n = 3), read-out: Potency (EC50 nM) HeLa
[9] = 48 hrs, Cell Titer Glo, read-out: EC50 A549
[10] = NCI-H2122, 48 h, 48 hrs, Cell Titer Glo, read-out: EC50 H2122
[11] = 48 h, Cell Titer Glo, read-out: EC50 HeLa
[12] = Mean ± SD (n = 3), read-out: Potency (EC50 nM) A549
[13] = Mean ± SD (n = 3), read-out: Potency (EC50 nM) HeLa
[14] = COLO-741, Example 18, Mean ± SD (n = 3), read-out: Potency (EC50 nM) COLO741
[15] = NCI-H2122, Example 18, Mean ± SD (n = 3), read-out: Potency (EC50 nM) H2122
[16] = Example 18, Mean ± SD (n = 3), read-out: Potency (EC50 nM) HeLa
[17] = n = 2, read-out: Potency (EC50) A549

For `CN(C(=O)CCCOc1ccc2[nH]c(=O)ccc2c1)C1CCCCC1` [Cllostamide, reference compound], the EC50 [1, 7] is given as > 10000 nM, the IC50 [2] is given as 27 nM and the EC50 [3, 8] is given as > 10000 nM.
In the case of `O=C1CCC(c2ccc(-n3ccnc3)cc2)=NN1` [Imazodan, reference compound], the EC50 [1, 7] is listed as > 10000 nM, the IC50 [2] is listed as 1300 nM and the EC50 [3, 8] is listed as 720 nM.
In the case of `C[C@@H]1CC(=O)NN=C1c1ccc(NN=C(C#N)C#N)cc1` [Levosimendan, reference compound], the EC50 [1, 7] is given as > 10000 nM, the IC50 [2] is given as 2.4 nM and the EC50 [3, 8] is given as > 10000 nM.
With `CCN(CC)c1ccc(C2=NNC(=O)CC2C)cc1[N+](=O)[O-]` (centres unmarked) [drawing 137] the EC50 [1, 9] was > 10000 nM, the EC50 [4, 10] was 10.3 to 15.6 nM and the EC50 [3, 11] was 5.5 to 8.7 nM.
With `CCN1N=C(c2ccc(N(CC)CC)cc2)[C@H](C)CC1=O` [drawing 140] the EC50 ([5]; COLO-741, 48 h, 48 hrs, Cell Titer Glo, read-out: EC50 COLO741) was > 1000 nM, the EC50 [1, 9] was > 10000 nM and the EC50 [4, 10] was > 1000 nM. The EC50 [3, 11] was > 10000 nM.
In the case of `C[C@@H]1CC(=O)NN=C1c1ccc(C2CCCCC2)cc1` [drawing 196], the EC50 [1, 12] is reported as > 10000 nM and the EC50 [3, 13] is reported as 7.7 ± 1.3 nM.
For `C[C@@H]1CC(=O)NN=C1c1ccc(-c2cncnc2)cc1` [drawing 197], the EC50 [1, 12] was > 10000 nM and the EC50 [3, 13] was 13 ± 2 nM.
With `Cc1cc(=O)[nH]nc1-c1ccc(N)cc1` [drawing 199] the EC50 [1, 12] was > 10000 nM and the EC50 [3, 13] was > 1000 nM.
With `CCN(CC)c1ccc(-c2n[nH]c(=O)cc2C)cc1` [drawing 200] the EC50 [1, 12] was > 10000 nM and the EC50 [3, 13] was > 1000 nM.
`CCN(CC)c1ccc(C2=NNC(=O)CC2C)cc1[N+](=O)[O-]` (centres unmarked) [drawing 215] gave an EC50 [5, 14] of 12 ± 1.3 nM and an EC50 [4, 15] of 13.7 ± 2.8 nM.
`C[C@@H]1CC(=O)NN=C1c1ccc(C2CCCCC2)cc1` [drawing 216] gave an EC50 [5, 14] of 11.4 ± 0.3 nM, an EC50 [4, 15] of 29.6 ± 8.7 nM and an EC50 [3, 16] of 7.7 ± 1.3 nM.
`C[C@@H]1CC(=O)NN=C1c1ccc(N2CCOCC2)c(F)c1` [drawing 217] gave an EC50 [5, 14] of 3.1 ± 0.6 nM, an EC50 [4, 15] of 3.2 ± 1.1 nM and an EC50 [3, 16] of 1.6 ± 0.2 nM.
With `C[C@@H]1CC(=O)NN=C1c1ccc(N2CCOCC2)cc1` [drawing 218] the EC50 [5, 14] was 20.2 ± 4.8 nM, the EC50 [4, 15] was 31.4 ± 10.8 nM and the EC50 [3, 16] was 13.1 ± 1.9 nM.
`C[C@@H]1CC(=O)NN=C1c1ccc(-c2cncnc2)cc1` [drawing 219] showed an EC50 [5, 14] of 19.8 ± 1.8 nM, an EC50 [4, 15] of 37.8 ± 12.3 nM and an EC50 [3, 16] of 12.7 ± 2.2 nM.
In the case of `C[C@@H]1CC(=O)NN=C1c1ccc(F)c(F)c1` [drawing 220], the EC50 [5, 14] is reported as 33.2 ± 14.1 nM, the EC50 [4, 15] is reported as 47.7 ± 14.1 nM and the EC50 [3, 16] is reported as 22.3 ± 4.5 nM.
Compound `CC(=O)Nc1ccc(C2=NNC(=O)C[C@H]2C)cc1[N+](=O)[O-]` [drawing 221] has an EC50 [5, 14] of 7.8 ± 0.3 nM, an EC50 [4, 15] of 12.3 ± 3.4 nM and an EC50 [3, 16] of 4.9 ± 1.1 nM.
For `CCN(CC)c1ccc(C2=NNC(=O)CC2C)cc1[N+](=O)[O-]` (centres unmarked) [drawing 226], the EC50 [6] was 12 nM, the EC50 [1, 17] was > 10000 nM and the EC50 ([4]; NCI-H2122, n = 2, read-out: Potency (EC50) H2122) was 12 nM. For the same compound, the EC50 ([3]; n = 2, read-out: Potency (EC50) HeLa) was 4 nM.
In the case of `CN/C(=N\c1ccc(C2=NNC(=O)CC2C)cc1)NC#N` (centres unmarked) [drawing 237], the EC50 [6] is reported as > 10000 nM and the EC50 [1, 17] is reported as > 10000 nM.
